The text below walks through data of US9850247B2 (Almac Discovery Limited, priority 2013, dated 2017).

The structures appear in SMILES notation. Read-outs that look alike come from different tables or passages of the source.

A word on the IC50: it is the point on the concentration scale where inhibition reaches its midpoint.

Series [1] is described as follows: CLint estimates using human liver microsomes (Method 4). It counts as in vitro ADME. The settings on record: pH 7.4, 1 μM compound, read-out: Mics - CLint (HLM CLint). Summed up: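 Depletion measured by LC/MS/MS in MRM mode over 2–50 min after starting reactions with 1 mM NADPH. Incubations used 0.5 mg/mL human liver microsomal protein, 1 μM compound, 0.1% DMSO, pH 7.4 phosphate buffer, 37 °C. ln peak area plotted against time; the gradient gave t½ and intrinsic clearance.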

The target in the next series is T1, Wee-1 kinase (Homo sapiens, UniProt P30291).
T1 construct: purchased Invitrogen PV3817
T1 sequence (P30291 whole entry): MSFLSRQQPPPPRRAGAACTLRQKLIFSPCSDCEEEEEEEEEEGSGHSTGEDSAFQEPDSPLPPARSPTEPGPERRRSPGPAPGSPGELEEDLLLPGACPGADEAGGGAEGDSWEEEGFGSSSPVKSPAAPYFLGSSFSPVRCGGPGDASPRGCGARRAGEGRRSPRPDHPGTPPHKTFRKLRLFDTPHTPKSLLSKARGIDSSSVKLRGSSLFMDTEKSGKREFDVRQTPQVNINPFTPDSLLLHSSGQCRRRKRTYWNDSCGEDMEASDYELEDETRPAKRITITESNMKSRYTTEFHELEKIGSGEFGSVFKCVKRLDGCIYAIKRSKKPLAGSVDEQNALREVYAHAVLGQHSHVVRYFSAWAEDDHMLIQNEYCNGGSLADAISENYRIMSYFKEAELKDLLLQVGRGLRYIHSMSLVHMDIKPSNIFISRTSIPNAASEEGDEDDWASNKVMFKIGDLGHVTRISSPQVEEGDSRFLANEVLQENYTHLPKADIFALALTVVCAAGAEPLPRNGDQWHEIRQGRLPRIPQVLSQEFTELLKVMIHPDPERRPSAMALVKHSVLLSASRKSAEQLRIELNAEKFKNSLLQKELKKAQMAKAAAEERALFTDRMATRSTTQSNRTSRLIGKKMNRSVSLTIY
In words: Measurement of Wee-1 kinase activity (ADP-Glo luminescent kit). It counts as biochemical. Put shortly:
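ADP-Glo luminescence reads ADP made over 1 h at RT, after an aliquot of 30 μM ATP and 2.0 μg/mL poly(Lys,Tyr 4:1) substrate. Before that, the kinase sat 30 min with inhibitor in Tris-HCl/MgCl2 buffer with BSA and DTT. IC50 came from regression of percent inhibition.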

In series [2] the test system is phospho-cdc2 (Tyr15) in HT-29 cells. In words: Effect on Cdc2 phosphorylation at Tyr15, Cell-Based ELISA Base Kit (Method 3). The settings on record: eight hours incubation, normalized to total cdc2, read-out: HT29 pCDC2 method 3. Here is the method:
Method 3: Determining the Effect of Compounds on the Cdc2 phosphorylation at Tyr15, using a Cell-Based ELISA Base Kit (R&D Systems, KCB001)
The colorectal cancer cell line, HT-29 was purchased from the ATCC and maintained in McCoy's 5 A medium (Gibco®, Life technologies) supplemented with 10% Foetal Calf Serum (FCS).
The cells were trypsinised and counted, 100 μL of 8000 cells was seeded into each well of a clear-bottom black 96-well microplate and incubated overnight to allow adherence to the surface, at 37° C. and 5% CO2 in a cell culture incubator.
Test compounds were formulated in DMSO and diluted in cell culture medium supplemented with FCS. Grow medium was removed from cells and medium containing compounds dilutions was added to each well. The plate was returned to the incubator for an additional eight hours of incubation at 37° C. and 5% CO2.
Post incubation cells were fixed by replacing the compounds supplemented medium with 100 μL of 4% formaldehyde in 1× phosphate buffered saline (PBS), for 20 minutes at room temperature. Formaldehyde solution was removed and cells were washed three times with PBS. The Cell-Based ELISA assay (R&D Systems) was carried out immediately after cell fixation or the plate was sealed and fixed cells were stored in PBS at 4° C. until required (no more than two weeks).
To continue the assay, PBS was removed and cells were washed 3 times for 5 minutes with 200 μL of 1× wash buffer. Each wash step was carried out with gentle shaking. Following washes, 100 μL of 0.6% H2O2 in 1× wash buffer (quenching buffer) was added, plate was sealed and incubated for 20 minutes at room temperature. Post incubation cells were washes 3 times for 5 minutes with 200 μL of 1× wash buffer, with gentle shaking. 100 μL of blocking buffer was added to each well, the plate was re-sealed and incubated at room temperature for 1 h.
After blocking, cells were washed as described above. A primary antibody mixture was prepared by mixing the two primary antibodies, a rabbit monoclonal antibody for phospho-cdc2 (Tyr15) (Cell Signaling, #4539) and mouse monoclonal antibody for total cdc2 p34 (Santa Cruz Biotechnology, sc-54), diluted 1:25 and 1:50 in blocking buffer, respectively. 60 μL of primary antibody mixture was added to each well, the plate was sealed and incubated overnight at 4° C.
The primary antibodies were removed and cells were washed as previously described. 100 μL of secondary antibody mixture, containing horseradish-peroxidase (HRP)-conjugated goat anti-rabbit IgG and alkaline phosphatase (AP)-conjugated goat anti-mouse IgG, diluted 1:100 in blocking buffer, was added to each test well. The plate was re-sealed and incubated for 2 hours at room temperature.
The secondary antibodies were removed and cells washed 2 times with wash buffer, followed by 2 washes with PBS. Each wash step was carried out for 5 minutes with gentle shaking. PBS was removed and 75 μL of fluorogenic substrate for HRP (substrate F1) added to each well. The plate was sealed and incubated for 1 h at room temperature, in the dark. 75 μL of fluorogenic substrate for AP (substrate F2) was added directly to each well, plate re-sealed and incubated for additional 40 minutes at room temperature, protected from direct light.
Following incubation fluorescence from each well was read at 600 nm (signal from substrate 1, phosphorylated protein) and then at 450 nm (signal from substrate 2, total protein).
The percentage of phospho-cdc2 was calculated compared to DMSO control, normalized to the total cdc2 and plotted versus the concentration of inhibitor, using GraphPad Prism. Data was fitted using a non-linear regression analysis and EC50 values generated.

For the compound `C[C@@H]1CN(c2ccc(Nc3ncc4c(n3)N(C)CN(c3c(Cl)cccc3Cl)C4=O)cc2CO)CCN1C` [Example 46, (R)-3-(2,6-dichlorophenyl)-7-((4-(3,4-dimethylpiperazin-1-yl)-3-(hydroxymethyl)phenyl)amino)-1-methyl-2,3-dihydropyrimido[4,5-d]pyrimidin-4(1H)-one], the microsomal CLint at 1 μM in series [1] is at most 15 µL/min/mg. The IC50 at Wee-1 kinase is at most 10 nM. Besides, the EC50 in series [2] (Homo sapiens, HT-29, 8 h) lay within 100 to 1000 nM.

As for `CCN1CN(c2c(Cl)cccc2Cl)C(=O)c2cnc(Nc3ccc(N4C[C@@H](C)N[C@@H](C)C4)c(CO)c3)nc21` [Example 170, 3-(2,6-dichlorophenyl)-7-((4-((3S,5R)-3,5-dimethylpiperazin-1-yl)-3-(hydroxymethyl)phenyl)amino)-1-ethyl-2,3-dihydropyrimido[4,5-d]pyrimidin-4(1H)-one], the microsomal CLint at 1 μM in series [1] is 15 to 50 µL/min/mg. In addition, the IC50 at Wee-1 kinase was at most 10 nM. The EC50 in series [2] (Homo sapiens, HT-29, 8 h) lay in the range of 100 to 1000 nM.

On to `C[C@@H]1CN(c2ccc(Nc3ncc4c(n3)N(C)CN(c3c(Cl)cccc3Cl)C4=O)cc2CO)CCN1` [Example 38, (R)-3-(2,6-dichlorophenyl)-7-((3-(hydroxymethyl)-4-(3-methylpiperazin-1-yl)phenyl)amino)-1-methyl-2,3-dihydropyrimido[4,5-d]pyrimidin-4(1H)-one], for which the microsomal CLint at 1 μM in series [1] is at most 15 µL/min/mg. At Wee-1 kinase, the half-inhibitory concentration (IC50) is at most 10 nM. Moreover, the EC50 in series [2] (Homo sapiens, HT-29, 8 h) lay in the range of 100 to 1000 nM.

In the case of `CN1CCN(c2ccc(Nc3ncc4c(n3)N(C)CN(c3c(Cl)cccc3Cl)C4=O)cc2CO)CC1` [Example 33, 3-(2,6-dichlorophenyl)-7-((3-(hydroxymethyl)-4-(4-methylpiperazin-1-yl)phenyl)amino)-1-methyl-2,3-dihydropyrimido[4,5-d]pyrimidin-4(1H)-one], the microsomal CLint at 1 μM in series [1] is 15 to 50 µL/min/mg. Moreover, the IC50 at Wee-1 kinase was at most 10 nM. The EC50 in series [2] (Homo sapiens, HT-29, 8 h) fell in the range of 100 to 1000 nM.

For `CN1CN(c2c(Cl)cccc2Cl)C(=O)c2cnc(Nc3ccc(N4CCNC(C)(C)C4)cc3)nc21` [Example 96, 3-(2,6-dichlorophenyl)-7-((4-(3,3-dimethylpiperazin-1-yl)phenyl)amino)-1-methyl-2,3-dihydropyrimido[4,5-d]pyrimidin-4(1H)-one], the microsomal CLint at 1 μM in series [1] was 15 to 50 µL/min/mg. Moreover, the IC50 on Wee-1 kinase was at most 10 nM. Further, in series [2] (Homo sapiens, HT-29, 8 h), the EC50 was in the range of 100 to 1000 nM.

Regarding `CNCC(=O)N1CCN(c2ccc(Nc3ncc4c(n3)N(C)CN(c3c(Cl)cccc3Cl)C4=O)cc2)CC1` [Example 124, 3-(2,6-dichlorophenyl)-1-methyl-7-((4-(4-(2-(methylamino)acetyl)piperazin-1-yl)phenyl)amino)-2,3-dihydropyrimido[4,5-d]pyrimidin-4(1H)-one], the microsomal CLint at 1 μM in series [1] is at most 15 µL/min/mg. Further, at Wee-1 kinase, the IC50 is at most 10 nM. Moreover, in series [2] (Homo sapiens, HT-29, 8 h), the EC50 was 100 to 1000 nM.

As for `CN1CN(c2c(Cl)cccc2Cl)C(=O)c2cnc(Nc3ccc(N4C[C@@H]5C[C@H]4CN5)c(CO)c3)nc21` [Example 164, 7-((4-((1S,4S)-2,5-diazabicyclo[2.2.1]heptan-2-yl)-3-(hydroxymethyl)phenyl)amino)-3-(2,6-dichlorophenyl)-1-methyl-2,3-dihydropyrimido[4,5-d]pyrimidin-4(1H)-one], the IC50 at Wee-1 kinase is at most 10 nM. The EC50 in series [2] (Homo sapiens, HT-29, 8 h) was at least 1000 nM.

Turning to `Cc1cc(Nc2ncc3c(n2)N(C)CN(c2c(Cl)cccc2Cl)C3=O)ccc1C1=CCNCC1` [Example 177, 3-(2,6-dichlorophenyl)-1-methyl-7-((3-methyl-4-(1,2,3,6-tetrahydropyridin-4-yl)phenyl)amino)-2,3-dihydropyrimido[4,5-d]pyrimidin-4(1H)-one], on Wee-1 kinase, the half-inhibitory concentration (IC50) is at most 10 nM. In series [2] (Homo sapiens, HT-29, 8 h), the EC50 lay in the range of 100 to 1000 nM.

In the case of `CN1CN(c2c(Cl)cccc2Cl)C(=O)c2cnc(Nc3ccc(C4=CCNCC4)c(CO)c3)nc21` [Example 179, 3-(2,6-dichlorophenyl)-7-((3-(hydroxymethyl)-4-(1,2,3,6-tetrahydropyridin-4-yl)phenyl)amino)-1-methyl-2,3-dihydropyrimido[4,5-d]pyrimidin-4(1H)-one], the IC50 on Wee-1 kinase was at most 10 nM. Moreover, the EC50 in series [2] (Homo sapiens, HT-29, 8 h) was at least 1000 nM.

For the compound `C[C@@H]1CN(c2ccc(Nc3ncc4c(n3)N(C)CN(c3ccccc3Cl)C4=O)cc2)C[C@H](C)N1` [Example 103, 3-(2-chlorophenyl)-7-((4-((3S,5R)-3,5-dimethylpiperazin-1-yl)phenyl)amino)-1-methyl-2,3-dihydropyrimido[4,5-d]pyrimidin-4(1H)-one], the IC50 on Wee-1 kinase was in the range of 10 to 100 nM. Besides, the EC50 in series [2] (Homo sapiens, HT-29, 8 h) lay within 100 to 1000 nM.

For `CN(C)CC(O)c1cccc(Nc2ncc3c(n2)N(C)CN(c2c(Cl)cccc2Cl)C3=O)c1` (stereo not shown) [Example 172, 3-(2,6-dichlorophenyl)-7-((3-(2-(dimethylamino)-1-hydroxyethyl)phenyl)amino)-1-methyl-2,3-dihydropyrimido[4,5-d]pyrimidin-4(1H)-one], the concentration for half-maximal inhibition (IC50) at Wee-1 kinase lay within 10 to 100 nM. For the same compound, in series [2] (Homo sapiens, HT-29, 8 h), the EC50 was at least 1000 nM.

For `CNCc1cc(Nc2ncc3c(n2)N(C)CN(c2c(Cl)cccc2Cl)C3=O)ccc1-c1cnn(C)c1` [Example 160, 3-(2,6-dichlorophenyl)-1-methyl-7-((4-(1-methyl-1H-pyrazol-4-yl)-3-((methylamino)methyl)phenyl)amino)-2,3-dihydropyrimido[4,5-d]pyrimidin-4(1H)-one], the IC50 on Wee-1 kinase is 10 to 100 nM. Also, the EC50 in series [2] (Homo sapiens, HT-29, 8 h) is at least 1000 nM.

In the case of `Cc1cc(Nc2ncc3c(n2)N(C)CN(c2c(Cl)cccc2Cl)C3=O)ccc1C1=CCN(C)CC1` [Example 178, 3-(2,6-dichlorophenyl)-1-methyl-7-((3-methyl-4-(1-methyl-1,2,3,6-tetrahydropyridin-4-yl)phenyl)amino)-2,3-dihydropyrimido[4,5-d]pyrimidin-4(1H)-one], on Wee-1 kinase, the IC50 is at most 10 nM. Also, the EC50 in series [2] (Homo sapiens, HT-29, 8 h) lay within 100 to 1000 nM.

On to `CN1CN(c2c(Cl)cccc2Cl)C(=O)c2cnc(Nc3ccc(C4CCN(C5CCC5)CC4)c(CO)c3)nc21` [Example 181, 7-((4-(1-cyclobutylpiperidin-4-yl)-3-(hydroxymethyl)phenyl)amino)-3-(2,6-dichlorophenyl)-1-methyl-2,3-dihydropyrimido[4,5-d]pyrimidin-4(1H)-one], for which the IC50 on Wee-1 kinase was at most 10 nM. Further, the EC50 in series [2] (Homo sapiens, HT-29, 8 h) was 100 to 1000 nM.

As to `CN1CN(c2c(Cl)cccc2Cl)C(=O)c2cnc(Nc3ccc4c(c3)C3CCC4N3C)nc21` (stereo not shown) [Example 175, 3-(2,6-dichlorophenyl)-1-methyl-7-((9-methyl-1,2,3,4-tetrahydro-1,4-epiminonaphthalen-6-yl)amino)-2,3-dihydropyrimido[4,5-d]pyrimidin-4(1H)-one], on Wee-1 kinase, the IC50 is at most 10 nM. Also, in series [2] (Homo sapiens, HT-29, 8 h), the EC50 lay in the range of 100 to 1000 nM.

Regarding `CN1CN(c2c(Cl)cccc2Cl)C(=O)c2cnc(Nc3ccc4c(c3)C3CCC4N3)nc21` (stereo not shown) [Example 166, 3-(2,6-dichlorophenyl)-1-methyl-7-((1,2,3,4-tetrahydro-1,4-epiminonaphthalen-6-yl)amino)-2,3-dihydropyrimido[4,5-d]pyrimidin-4(1H)-one], the IC50 at Wee-1 kinase was 10 to 100 nM. Further, in series [2] (Homo sapiens, HT-29, 8 h), the EC50 was at least 1000 nM.

Turning to `COC[C@H]1CN(c2ccc(Nc3ncc4c(n3)N(C)CN(c3c(Cl)cccc3Cl)C4=O)cc2C(O)C(F)(F)F)CCN1` (single isomer, unassigned) [Example 185], at Wee-1 kinase, the IC50 is at most 10 nM. Besides, the EC50 in series [2] lay in the range of 100 to 1000 nM.
